Experimental data from the METLIN SMRT retention time set (Domingo-Almenara et al. 2019).

Experiment: gradient 5% acetonitrile 3 min, to 50% in 2 min, to 85% in 15 min, held 3 min, 100 µL/min
Settings: column: Zorbax Extend-C18 2.1 x 50 mm; eluents: water / acetonitrile, 0.1% formic acid
Outline: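 A Zorbax Extend-C18 column (2.1 × 50 mm, 1.8 μm) run at 100 μL/min with water and acetonitrile, both containing 0.1% formic acid, separated mixtures of ~100 pure standards. The HPLC was coupled to a quadrupole time-of-flight mass spectrometer operated in positive and negative ionization mode, with dead and dwell volumes of 40 μL and 900 μL. Each retention time was taken from a computationally picked adduct peak that was then manually inspected.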

| SMILES | RP-LC retention time [s] |
| --- | --- |
| CCc1ccc(NS(=O)(=O)c2cc3[nH]c(=O)[nH]c3cc2C)cc1 | 719 |
| COc1ccc(NC(=O)N2CCCC2c2nc(-c3cccc(F)c3)no2)cc1 (configuration not stated) | 842 |
| Cc1cc(C)cc(Oc2nccn3c(=O)n(CC(=O)Nc4ccc(F)cc4)nc23)c1 | 905 |
| Cc1ccc(F)c2c(=O)c3c([nH]c12)CCN(CC(=O)Nc1ccc(F)c(F)c1)C3 | 635 |
| CCc1ccc(CNC(=O)c2ccc3[nH]c4c(c3c2)CN(C(C)=O)CC4)cc1 | 680 |
| O=C(Nc1ccc(C(=O)N2CCC(C(=O)NC3CCCCCC3)CC2)cc1)c1ccccc1Cl | 839 |
| COC(=O)c1ncn2c1C(=O)N(c1cc(C)cc(C)c1)C(C)(C(=O)NC1CCCC1)C2 (configuration not stated) | 734 |
| Cc1ccc(C)c(NC(=O)CSc2nnc3c4cc(-c5ccc(C)c(C)c5)nn4ccn23)c1 | 778 |
| Cc1cc(C)cc(S(=O)(=O)N2CCN(CCc3cn(C)c4ncccc34)CC2)c1 | 652 |
| CCNC(=O)c1nc(Nc2ccc(F)cc2)c2ccccc2n1 | 688 |
| COC(=O)c1cc(S(=O)(=O)N2CCCC2C(=O)Nc2ccc(C)cc2Br)cn1C (configuration not stated) | 1000 |
| Cc1oc(-c2ccc(NC(=O)Cc3ccc(F)cc3)cc2)nc1Cn1cccn1 | 866 |
| CNC(=O)c1ccc(-c2nc3cc(NS(=O)(=O)c4cc(C)c(C)cc4C)ccc3n2C)cc1 | 713 |
| CC1Oc2ccc(-c3csc(NC(=O)c4ccncc4)n3)cc2N(C)C1=O (configuration not stated) | 766 |
| CCOC(=O)CNC(=O)NC1CCN(C2=NS(=O)(=O)C(c3ccc(C)cc3)=C2C)CC1 | 743 |
| C=CCn1c(=O)c2ccccc2n(Cc2nc(-c3ccc(OCC)c(OC)c3)no2)c1=O | 682 |
| Cc1ncoc1C(=O)N1CC(c2noc(C3CCCN3CC3CC3)n2)C1 (configuration not stated) | 559 |
| COc1cc(OC)cc(-c2nnc(Cc3nc(-c4cccc(C)c4)no3)o2)c1 | 1080 |
| Cc1ccc(CNC(=O)C2(C)CCCN(C(=O)Nc3ccccc3Cl)C2)cc1 (configuration not stated) | 995 |
| CC(C)CC(=O)Nc1ccc2c(c1)nc(CN1CCOCC1)n2C(C)C | 630 |
| O=C(N1c2ccccc2CC1c1nnc(C2CCOCC2)o1)C1(c2ccccc2)CC1 (configuration not stated) | 841 |
| CCc1ccc(NC(=O)Cn2c(=O)n(-c3ccc(F)cc3)c(=O)c3c2cc(C)n3C)cc1 | 888 |

| SMILES | RP-LC retention time [s] |
| --- | --- |
| Brc1cccc(-c2noc(Cn3ccnc3)n2)c1 | 650 |
| COc1ccc(NC(=O)N2CCN(CCn3c(C(C)C)nc4cccnc43)CC2)c(OC)c1 | 592 |
| Cn1ccc(CN2CCC(Cc3ccccc3)CC2)cc1=O | 611 |
| CCc1noc(-c2cccnc2N2CCCN(Cc3cc(F)cc(F)c3)CC2)n1 | 673 |
| CSc1ccc(-c2nc3ccc(Cl)cn3c2Nc2ccc3c(c2)OCCO3)cc1 | 819 |
| O=C(c1ccoc1)N1CCC(Cc2noc(C3CC3)n2)C1 (configuration not stated) | 695 |
| CCN1CCCC1CNC(=O)Cn1nc(C)n2nc(-c3ccccc3)cc2c1=O (configuration not stated) | 635 |
| Cc1ccccc1C(=O)CC1(O)C(=O)Nc2ccc(Br)cc21 (configuration not stated) | 804 |
| CCc1noc(NC(C)=O)c1-c1ccc(OC)c(S(=O)(=O)N2CCCCC2)c1 | 758 |
| O=C(CN1CCCc2nc(C3CC3)ncc2C1=O)NCc1cccs1 | 682 |
| O=C(Nc1ccc2nc3n(c(=O)c2c1)CCCC3)c1cc2ccccc2[nH]1 | 720 |
| Cc1ccc(S(=O)(=O)N2CCC(n3c(-c4ccoc4)nc4cccnc43)C2)cc1 (configuration not stated) | 863 |
| Cc1csc(-c2cc(S(=O)(=O)NCCc3ccc(S(N)(=O)=O)cc3)c(C)n2C)n1 | 769 |
| COc1ccc(NC(=O)N2C[C@@H]3C[C@H]2C[C@@H]3NS(=O)(=O)c2ccccc2)cc1F | 778 |
| Cc1ccc(CNC(=O)C2CCCN(c3nnc(C)c4c(C)n(-c5ccc(C)cc5)nc34)C2)cc1 (configuration not stated) | 800 |
| Cc1ccc(C(C)C)cc1NC(=O)Nc1ccc([N+](=O)[O-])cc1 | 1160 |
| COc1ccc(C(=O)Nc2ccc3nc(N4CCN(CCC#N)CC4)cc(C(=O)O)c3c2)cc1 | 599 |
| O=C(NCc1ccc(-c2noc(Cc3cccc(F)c3)n2)s1)C1CC1 | 879 |
| CCc1ccc(NC(=O)Cn2nc3cc(C)nc(Nc4ccc(F)c(C)c4)n3c2=O)cc1 | 1160 |
| CC(C)CC(=O)Nc1ccc(OCc2cc(C(=O)NC(C)C)no2)cc1 | 816 |
| O=c1n(CCOc2ccc(F)cc2)nc2c(S(=O)(=O)N3CCCCCC3)cccn12 | 744 |
| CCCN(CC1CCOC1)C(=O)Nc1ccc(C)cc1Cl (configuration not stated) | 902 |

| SMILES | RP-LC retention time [s] |
| --- | --- |
| C=CCNC(=O)CCc1c(-c2ccc(Br)cc2)nc2ccccn12 | 622 |
| COc1ccc(OCc2noc(CNC(=O)c3cnn(-c4ccccc4)c3C)n2)cc1 | 799 |
| O=C(CCNc1c(-c2cccc(F)c2)nc2cnccn12)NCc1ccc(F)c(Cl)c1 | 806 |
| Cn1c(=O)c(N2CCN(C(=O)c3ccc(F)cc3F)CC2)nc2ccncc21 | 586 |
| Cc1ccnc(N2CCCC(C(=O)N3CCN(C)CC3)C2)n1 (configuration not stated) | 538 |
| CC(C)c1ccc(Nc2c(-c3ccc(Cl)cc3)nc3cnccn23)cc1 | 1190 |
| O=C(c1ccc(Br)o1)N1CCC(n2cnnc2C2CC2)CC1 | 631 |
| CCn1cc(C(=O)N2CCc3ccccc32)c2nn(-c3ccccc3)c(=O)c-2c1 | 803 |
| Cc1ccc(CN2N=C(C(=O)N3CCC(C)CC3)S(=O)(=O)c3ccccc32)cc1 | 1060 |
| COc1ccc(OC)c(CNC(=O)c2cn3ccccc3n2)c1 | 665 |
| Fc1cc(F)cc(-c2nnc(Cc3nc(-c4cccnc4)no3)o2)c1 | 805 |
| c1ccc(-c2noc(-c3ccc(N4CCN(C5CCCCC5)CC4)nc3)n2)cc1 | 772 |
| O=C(NCc1ccccc1Cl)C(=O)NCC(c1ccc2c(c1)OCO2)N1CCOCC1 (configuration not stated) | 678 |
| Cc1ccccc1NC(=O)CN1C(=O)CC(c2ccccc2)S(=O)(=O)c2ccccc21 (configuration not stated) | 894 |
| CC(C)CN1Cc2c(nc3ccccc3c2C(=O)N2CCC(C)CC2)C1=O | 834 |
| COc1ccc(C(C)NC(=O)c2cn3cc(Cl)ccc3n2)cc1 (configuration not stated) | 833 |
| COCCCNC(=O)C1c2ccccc2C(=O)N1CCCc1ccccc1 (configuration not stated) | 761 |
| Cc1cc(C)cc(C(=O)N2CCN(c3nc(CN4CCOCC4)cs3)CC2)c1 | 647 |
| CCc1ccccc1N1C(=O)CN(S(=O)(=O)CC)CC1(C)C(=O)NC1CCCC1 (configuration not stated) | 826 |
| Cc1nc(N2CCOCC2)c2c(C(=O)Nc3ccc(Br)cc3F)c(C)oc2n1 | 976 |
| CCC1CCCCN1CCCNC(=O)Cn1ccc2cc(S(=O)(=O)N3CCCCCC3)ccc21 (configuration not stated) | 704 |
| CCc1nn2c(CNC(=O)c3cccc(Cl)c3)c(-c3ccccc3)nc2s1 | 998 |

| SMILES | RP-LC retention time [s] |
| --- | --- |
| CCOc1ccc(S(=O)(=O)N2CCC(C(=O)NCCc3csc(-c4ccccc4)n3)CC2)cc1 | 997 |
| CCc1ccc(S(=O)(=O)N2CCCC(Cn3cnc4cccnc43)C2)cc1 (configuration not stated) | 774 |
| Cc1cc2[nH]c(C(=O)Nc3cc(Cl)ccc3F)c(CN3CCOCC3)c2s1 | 892 |
| Cc1cccc(-c2nnc(SCc3cc(=O)n4nc(C)sc4n3)o2)c1 | 782 |
| CCOc1ccc(-c2nc(-c3cccc(-c4ccnn4CC)c3)no2)cc1OCC | 1300 |
| Cc1oc(-c2[nH]ncc2C(=O)N2CCCC2)cc1S(=O)(=O)Nc1ccc(F)cc1 | 705 |
| CCOC(=O)c1[nH]c(C)c(CCC(=O)N2CCC(C(=O)N3CCCCC3)CC2)c1C | 737 |
| COc1ccc(-c2cn3c(CC(=O)N4CCN(c5ccc(Cl)cc5)CC4)csc3n2)cc1OC | 816 |
| O=C(NCCN1CCOCC1)C1CCN(c2cnc(N3CCSCC3)nc2)CC1 | 590 |
| NC(=O)CCC(NC(=O)Cc1ccccc1)C(=O)O (configuration not stated) | 594 |
| Cc1c(C(=O)N2CCCC(C)C2)sc2ncn(CC(=O)N3CC(C)CC(C)C3)c(=O)c12 (configuration not stated) | 966 |
| Cc1ccc(-c2noc(C3CCCN3S(=O)(=O)c3ccc(C(C)(C)C)cc3)n2)cc1 (configuration not stated) | 788 |
| CCN1c2ccc(F)cc2C(=O)NC12CCN(C(=O)c1ccccc1)CC2 | 763 |
| Cc1cccc(OCc2nc(-c3ccc4c(c3)ncn4CCN3CCCC3)no2)c1 | 673 |
| COc1cc(Cl)c(NC(=O)CN2C(=O)CN(C)C(=O)c3ccccc32)c(OC)c1 | 717 |
| O=C(NC1CC1)c1ccc(OCC2CCN(C(=O)c3ccc(C(F)(F)F)cc3)CC2)cc1 | 899 |
| CCCNC(=O)C1CCN(S(C)(=O)=O)c2ccccc2O1 (configuration not stated) | 708 |
| CCC(Oc1ccc(=O)n(-c2ccc(F)cc2)n1)C(=O)Nc1ccc(C(C)=O)cc1 (configuration not stated) | 764 |
| Cc1cccc(N(C)C(=O)Cn2c(=O)n(-c3cccc(C)c3)c(=O)c3c2cc(C)n3C)c1 | 752 |
| CCOC(=O)Cc1cc(=O)oc2cc(O)cc(O)c12 | 660 |
| Cc1nn(-c2ccccc2)c2c1nc(CCC(=O)N1CCN(c3ccccn3)CC1)c(=O)n2C | 601 |
